# Tests used:
# GIRK1/GIRK2 channels = target: T1, GIRK1/GIRK2 channels (Mus musculus, UniProt P48542+P63250); assay: Two-electrode voltage-clamp, GIRK1/GIRK2 channels expressed in oocytes; format: cell-based; details: 100 μM OS, HK
# T1 construct: expressed in transfected cells; host or cells: Xenopus laevis oocytes (cRNA injection)
# T1 sequence (P63250 1-501): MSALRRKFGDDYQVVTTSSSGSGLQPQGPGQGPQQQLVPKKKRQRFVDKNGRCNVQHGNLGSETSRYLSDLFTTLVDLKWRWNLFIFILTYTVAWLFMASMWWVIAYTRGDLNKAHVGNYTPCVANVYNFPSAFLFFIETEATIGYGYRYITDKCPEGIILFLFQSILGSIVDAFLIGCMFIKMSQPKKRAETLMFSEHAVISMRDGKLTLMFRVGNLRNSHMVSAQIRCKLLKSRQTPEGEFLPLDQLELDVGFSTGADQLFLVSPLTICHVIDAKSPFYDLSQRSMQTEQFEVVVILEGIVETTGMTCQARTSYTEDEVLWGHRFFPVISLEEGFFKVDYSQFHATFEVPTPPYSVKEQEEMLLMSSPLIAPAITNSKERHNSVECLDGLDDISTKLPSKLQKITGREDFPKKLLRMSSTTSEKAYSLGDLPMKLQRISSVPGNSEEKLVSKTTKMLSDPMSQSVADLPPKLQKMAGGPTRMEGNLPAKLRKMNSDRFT
# T1 sequence (P48542 1-425): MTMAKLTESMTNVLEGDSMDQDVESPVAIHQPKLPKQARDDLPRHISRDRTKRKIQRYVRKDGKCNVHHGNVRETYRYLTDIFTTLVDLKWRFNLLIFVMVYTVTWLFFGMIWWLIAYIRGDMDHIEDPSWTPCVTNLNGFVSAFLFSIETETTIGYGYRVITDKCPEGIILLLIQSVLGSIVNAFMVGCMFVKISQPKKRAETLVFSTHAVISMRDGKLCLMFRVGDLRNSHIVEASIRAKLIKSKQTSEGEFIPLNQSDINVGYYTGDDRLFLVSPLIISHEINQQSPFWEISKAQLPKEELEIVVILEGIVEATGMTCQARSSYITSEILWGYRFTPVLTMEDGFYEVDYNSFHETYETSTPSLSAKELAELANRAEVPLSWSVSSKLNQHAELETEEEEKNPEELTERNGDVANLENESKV
# Source text: In vitro transcription of cDNA clones.
# Heterologous expression in Xenopus laevis oocytes.
# (§1) Electrophysiological measurements.
# MRGPRX2 = MRGPRX2 (Homo sapiens, UniProt Q96LB1)
# TRPV1 [1] = target: T2, TRPV1 (Homo sapiens, UniProt Q8NER1); format: cell-based
# T2 construct: expressed in transfected cells; host or cells: Xenopus laevis oocytes (cRNA injection)
# MOR = MOR (Homo sapiens, UniProt P35372)
# TRPV1 [2] = system: TRPV1; set-up: method as in PMID 17279090; details: HEK cells overexpressing TRPV1; read-out: IC50 as antagonist of TRPV1; cited from earlier work
# C57BL/6J mice = assay: Open Field (OF); format: in vivo, mouse; details: i.p.
# Description: Animal housing. Forty-eight Male C57BL/6J mice were purchased from Janvier Labs (Le Genest-Saint-Isle, France) and were time-specifically housed in a 12 h light-dark cycle (lights on at 7 am), with ad libitum water and food in conditioned rooms (22 °C, humidity ~60%).
# Behavior assays. All mice were subjected to a behavioral test battery that consisted of several general performance tasks of locomotor activity, exploratory and anxiety-like behavior, and learning and memory. Mice were divided into four groups: Vehicle, OS (2 mg/kg), WIN55 (0.5 mg/kg), or OS + WIN. Each group consisted of 7–14 mice that received two i.p injections before each test, with a 10 min interval between each injection. Veh + Veh were injected with PBS. Veh + WIN were injected with PBS and WIN55. Veh + OS were injected with PBS and OS. OS + WIN were injected with OS and WIN55. PBS was used as vehicle as it was used for dilution of drugs. Tests were performed in the order described below after 10 min of the last injection, with a 24 h interval between each test.
# Open Field (OF): One day after the cage activity test, mice were tested in the OF paradigm. The OF aimed to test the OS, WIN, and OS + WIN effect on animal locomotion and exploratory behavior. Animals were placed in the test room one hour before starting the test. For the OF, animals were placed in a plexiglass box (60 × 60 × 60 cm) divided into three zones (center, periphery, and corners) for 10 min and left free to explore. Total distance and time in zones were counted. Here, more time in the center meant an anxiolytic effect, and a higher distance walking meant an increase in locomotor activity. For this test, we used Veh (n = 8), OS (n = 10), WIN (n = 7), OS + WIN (n = 8).
# non-injected oocytes = assay: Two-electrode voltage-clamp on non-injected oocytes; format: cell-based, Xenopus laevis; details: 100 μM OS, ND96
# Source text: Isolation of Xenopus laevis oocytes. All procedures for the use and handling of adult female Xenopus laevis frogs (CRB Xénopes, Rennes, France) were approved by the Animal Ethics Committee of the KU Leuven (Project No. P186/2019) following regulations of the European Union (EU) concerning the welfare of laboratory animals as declared in Directive 2010/63/EU. Oocytes were isolated as described previously. Stage V–VI Xenopus laevis oocytes were isolated by partial ovariectomy. The animals were anesthetized by a 15 min submersion in 0.1% tricaine methane sulfonate (Sigma-Aldrich Chemical, St. Louis, MO, USA) solution (pH 7.0). The oocytes were enzymatically defolliculated by collagenase (3 mg/mL) (Sigma-Aldrich Chemical, St. Louis, MO, USA) digestion at 16 °C on a rocker platform in a Ca^2+-free ND96 solution. Isolated stage V–VI oocytes were then maintained in ND96 solution containing Theophylline and Gentamicin at 16 °C.
# as §1
# 5-HT4aR = 5-HT4aR (Mus musculus, UniProt P97288)
# chimeric CB1/2 receptor = assay: Two-electrode voltage-clamp, chimeric CB1/2-GIRK1/GIRK2-RGS4 coupling system expressed in oocytes; details: 100 μM OS + 0.5 μM WIN55,212-2
# Chain of MRGPRX2 (Q96LB1 whole entry): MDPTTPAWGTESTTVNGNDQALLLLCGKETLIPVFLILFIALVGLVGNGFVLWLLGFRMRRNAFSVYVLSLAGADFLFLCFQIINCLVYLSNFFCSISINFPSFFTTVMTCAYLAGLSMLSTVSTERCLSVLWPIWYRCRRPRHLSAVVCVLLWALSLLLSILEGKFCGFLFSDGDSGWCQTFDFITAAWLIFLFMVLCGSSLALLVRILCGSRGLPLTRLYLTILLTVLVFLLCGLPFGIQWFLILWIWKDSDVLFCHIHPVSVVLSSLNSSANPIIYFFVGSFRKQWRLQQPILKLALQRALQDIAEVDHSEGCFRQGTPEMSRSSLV
# Chain of 5-HT4aR (P97288 1-387 isoform P97288-2): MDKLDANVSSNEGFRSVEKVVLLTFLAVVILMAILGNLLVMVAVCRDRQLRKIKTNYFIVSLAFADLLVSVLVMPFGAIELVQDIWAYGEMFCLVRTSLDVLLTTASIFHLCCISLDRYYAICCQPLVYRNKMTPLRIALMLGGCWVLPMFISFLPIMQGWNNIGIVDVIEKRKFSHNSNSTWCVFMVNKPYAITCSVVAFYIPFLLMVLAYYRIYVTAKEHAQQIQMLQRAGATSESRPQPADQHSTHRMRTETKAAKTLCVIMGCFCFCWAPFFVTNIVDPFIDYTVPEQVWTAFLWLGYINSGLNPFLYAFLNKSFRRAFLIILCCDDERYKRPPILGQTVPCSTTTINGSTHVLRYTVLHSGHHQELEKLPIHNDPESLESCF
# Chain of MOR (P35372 whole entry): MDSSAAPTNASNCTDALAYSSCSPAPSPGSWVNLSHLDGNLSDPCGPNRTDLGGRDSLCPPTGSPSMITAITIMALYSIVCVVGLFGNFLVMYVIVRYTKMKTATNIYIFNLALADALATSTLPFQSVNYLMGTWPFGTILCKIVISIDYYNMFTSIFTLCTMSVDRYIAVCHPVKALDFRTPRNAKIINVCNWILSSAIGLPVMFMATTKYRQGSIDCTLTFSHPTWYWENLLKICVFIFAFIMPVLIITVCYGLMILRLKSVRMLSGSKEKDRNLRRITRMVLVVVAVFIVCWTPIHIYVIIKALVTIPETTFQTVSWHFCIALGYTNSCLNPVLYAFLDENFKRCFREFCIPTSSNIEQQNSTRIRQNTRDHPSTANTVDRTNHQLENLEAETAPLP
# T2 sequence (Q8NER1 whole entry): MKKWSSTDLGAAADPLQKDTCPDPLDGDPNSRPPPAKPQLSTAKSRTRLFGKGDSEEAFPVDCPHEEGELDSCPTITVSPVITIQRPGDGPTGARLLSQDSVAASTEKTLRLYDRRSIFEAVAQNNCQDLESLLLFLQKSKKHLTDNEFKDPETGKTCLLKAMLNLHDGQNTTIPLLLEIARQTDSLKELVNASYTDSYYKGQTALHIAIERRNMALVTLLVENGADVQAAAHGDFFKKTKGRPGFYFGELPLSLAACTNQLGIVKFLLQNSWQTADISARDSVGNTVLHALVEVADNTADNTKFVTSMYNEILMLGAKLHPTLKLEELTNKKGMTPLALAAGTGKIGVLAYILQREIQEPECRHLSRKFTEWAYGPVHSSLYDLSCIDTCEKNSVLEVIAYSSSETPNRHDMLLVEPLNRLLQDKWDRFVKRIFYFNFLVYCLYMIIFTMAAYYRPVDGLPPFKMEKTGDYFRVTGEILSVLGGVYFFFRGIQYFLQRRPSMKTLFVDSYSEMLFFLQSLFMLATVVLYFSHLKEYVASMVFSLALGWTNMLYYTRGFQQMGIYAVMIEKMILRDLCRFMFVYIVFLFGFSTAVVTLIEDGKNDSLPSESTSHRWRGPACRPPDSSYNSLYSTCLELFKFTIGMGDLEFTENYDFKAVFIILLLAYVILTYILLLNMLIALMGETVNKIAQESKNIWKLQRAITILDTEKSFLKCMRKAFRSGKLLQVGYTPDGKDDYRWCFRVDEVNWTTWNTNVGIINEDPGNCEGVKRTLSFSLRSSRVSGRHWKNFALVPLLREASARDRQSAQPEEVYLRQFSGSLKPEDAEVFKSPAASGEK
compound,measurement,setting,value
"CCCCCCCC/C=C\CCCCCCCC(=O)NCCc1c[nH]c2ccc(O)cc12 [OS, oleoyl serotonin]","Effect on IK,basal",GIRK1/GIRK2 channels,"did not significantly change IK,basal"
same,Activity in selectivity screening,MRGPRX2,did not show significant activity
same,Activity in selectivity screening,TRPV1 [1],did not show significant activity
same,Activity in selectivity screening,MOR,did not show significant activity
same,IC50,TRPV1 [2],2.57 µM
same,Effect of OS injection on the WIN-induced decrease of time in the periphery,C57BL/6J mice; OS 2 mg/kg before WIN 0.5 mg/kg,prevented this decrease
same,Total distance walked in open field (locomotion),"C57BL/6J mice; OS 2 mg/kg, WIN 0.5 mg/kg, 10 min test",neither OS nor WIN affected locomotion
same,Time spent in the center zone of open field,"C57BL/6J mice; OS 2 mg/kg, WIN 0.5 mg/kg, compared with Veh + WIN",spent more time than the WIN-only group
same,Activity on non-injected oocytes,non-injected oocytes,did not show activity
same,Activity in selectivity screening,5-HT4aR,did not show significant activity
same,"Effect on WIN55,212-2-induced receptor-dependent inward K+ currents (IK,WIN)",chimeric CB1/2 receptor,did not change the response

# Source: paper PMC10887214 (Biomedicines, 2024)
